We go through two compounds from the NIST ThermoML archive (doi:10.1021/je4009238).

A short description of data set [1]: refractive index (Na D-line) (dimensionless). To be noted: 101.33 kPa, Liquid.
For data set [2] the following is noted: 101 kPa, Liquid.

± gives the expanded uncertainty stated by the source.

For the compound `CCCCCCCC[n+]1ccn(C)c1.[Cl-]` [1-methyl-3-octylimidazolium chloride], the refractive index came out at 1.49008 ± 0.01 in data set [1] (288.15 K), 1.48709 ± 0.01 in data set [1] (298.15 K), 1.48413 ± 0.01 in data set [1] (308.15 K) and 1.48122 ± 0.01 in data set [1] (318.15 K). For the same compound, the mass density in data set [2] (288.15 K) was 1022.06 ± 10 kg/m3; in data set [2] (298.15 K), 1015.97 ± 10 kg/m3; in data set [2] (308.15 K) it was 1009.8 ± 10 kg/m3; in data set [2] (318.15 K), 1003.62 ± 10 kg/m3. In addition, the figures for the viscosity in data set [2] (308.15 K) and in data set [2] (318.15 K) were 155.03 ± 38 mPa·s and 65.95 ± 7.6 mPa·s, respectively.
Regarding `CCCCCCn1cc[n+](C)c1.[Cl-]` [1-hexyl-3-methylimidazolium chloride], the refractive index in data set [1] (288.15 K) is listed as 1.5125 ± 0.0013; in data set [1] (298.15 K), 1.50953 ± 0.0013; in data set [1] (308.15 K) it was 1.50667 ± 0.0013; in data set [1] (318.15 K), 1.5039 ± 0.0013. Moreover, the mass density in data set [2] (288.15 K) is reported as 1047.99 ± 1 kg/m3; in data set [2] (298.15 K), 1042.2 ± 0.98 kg/m3; in data set [2] (308.15 K) it was 1036.43 ± 0.94 kg/m3; in data set [2] (318.15 K), 1030.62 ± 0.9 kg/m3. The viscosity in data set [2] (308.15 K) is reported as 2044.2 mPa·s; in data set [2] (318.15 K), 884.2 mPa·s.

For orientation: refractive index means a measure of how strongly the sample bends light. The mass density is the mass of a sample divided by its volume. By viscosity is commonly meant the internal friction of a fluid under shear.
